Measured values: patent US10000469B2, “Heat shock protein 70 (hsp-70) receptor ligands” (Duke University, priority 2014, dated 2018)

What was measured:
Hsp70 = molecular target: T1, Hsp70 (Sus scrofa, UniProt P34930); assay: Endogenous Hsp70 elution from ATP resin, pig bladder lysate; type: binding; details: few non-specific eluted proteins
T1 construct: from tissue; host or cells: pig bladder
Description: Endogenous Hsp70 elution: Pig bladder tissue was used for eluting endogenous Hsp70 from the γ-phosphate ATP sepharose resin. Tissue was homogenized in liquid nitrogen and stored at −80° C. until further use. Tissue mass was measured (g) and then 2.5× volume (mL) of tissue lysis buffer (50 mM HEPES, 60 mM MgCl2, 60 mM KCl, 1 mM DTT) was added and homogenized on a laboratory blender. A total of 25 grams of homogenized tissue was typically used for each experiment. Subsequent to lysis, the tissue was centrifuged at 35,000 RPM in a Beckman Type 45 Ti rotor (Brea, Calif.) for 45 minutes at 4° C., and then filtered over silica wool. The filtered supernatant was then added to the γ-phosphate ATP sepharose resin and washed as previously described in the FLECS screen. Compounds were used to elute Hsp70 and the elutions were then separated by SDS-PAGE and analyzed by Western blot or the gels were visualized by silver stain.

Hsp70i C306D mutant = molecular target: T2, Hsp70i C306D mutant (Homo sapiens, UniProt P0DMV8, C306D); assay: Thermofluor assay, Hsp70i C306D mutant; type: binding; details: ±ATP
T2 construct: His tag (cleaved yes); made in house
T2 sequence (P0DMV8 whole entry C306D): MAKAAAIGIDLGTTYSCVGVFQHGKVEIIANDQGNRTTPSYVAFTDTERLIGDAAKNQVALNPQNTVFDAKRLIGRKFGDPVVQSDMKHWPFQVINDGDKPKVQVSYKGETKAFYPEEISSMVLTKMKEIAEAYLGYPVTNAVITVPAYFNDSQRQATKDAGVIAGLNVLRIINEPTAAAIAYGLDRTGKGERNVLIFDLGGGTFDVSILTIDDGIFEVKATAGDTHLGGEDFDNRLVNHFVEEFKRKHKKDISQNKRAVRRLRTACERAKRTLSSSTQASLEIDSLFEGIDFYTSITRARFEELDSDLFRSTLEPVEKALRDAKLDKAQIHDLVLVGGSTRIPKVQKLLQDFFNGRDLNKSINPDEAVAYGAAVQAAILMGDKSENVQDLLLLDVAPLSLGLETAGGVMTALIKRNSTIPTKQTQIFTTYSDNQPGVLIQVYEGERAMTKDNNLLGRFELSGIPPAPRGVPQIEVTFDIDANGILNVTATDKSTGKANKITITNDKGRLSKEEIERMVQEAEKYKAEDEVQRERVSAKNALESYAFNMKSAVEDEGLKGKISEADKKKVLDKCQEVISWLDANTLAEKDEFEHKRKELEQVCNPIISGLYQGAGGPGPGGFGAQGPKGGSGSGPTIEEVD
Description: Protein Purification: Plasmids were provided for human HSPA1A, HSPA8, and HSPA1A C306D. Plasmids were transformed in Rosetta competent cells and single colonies were picked from streaked LB/ampicillin/chloramphenicol plates. Cultures were grown at 37° C. for 4-6 hours, were cooled to 15° C. and expression was induced overnight with 200 uM isopropyl 1-thio-β-D-galactopyranoside. Cells were pelleted and resuspended in Ni-lysis buffer (50 mM Na2HPO4, 300 mM NaCl, 10 mM Imidazole, 0.05% Tween-20) supplemented with Complete Mini protease inhibitor tablets (Roche, Mannheim, Germany) and […], and then sonicated. The cells were again pelleted and the supernatant was incubated with complete His-Tag purification resin (Roche, Mannheim, Germany) for 5 hours at 4° C. The resin was washed with Ni-wash buffer (50 mM Na2HPO4, 300 mM NaCl, 20 mM Imidazole, 0.05% Tween-20) and eluted with Ni-elution buffer (50 mM Na2HPO4, 300 mM NaCl, 250 mM Imidazole, 0.05% Tween-20). […]
Thermofluor Assay: SYPRO orange (Molecular Probes, Eugene, Oreg.) was diluted 1:1000 in 25 mM HEPES, 5 mM MgCl2, 10 mM KCl (pH 7.5) and purified Hsp70i, Hsc70, Hsp70i C306, or Hsp90, was then added to a final dilution of 0.04 mg/ml. […] A melt curve protocol (25° C. to 90° C., increasing 0.5° C. and a plate reading every 30 seconds) was run on a CFX384 Touch™ Real-Time PCR Detection System (BioRad). […]

SkBr3 = assay: Cell proliferation, SkBr3; type: cell-based; details: SkBr3
Description: Cell Proliferation: Cell proliferation was determined using a Hoechst stain (Sigma, St. Louis, Mo.) to quantify DNA. 5,000 cells of the designated cell line were plated in 96 well plates and treated the next day, designated as time point 0, with the indicated concentration of the specified compound maintained for the duration of the assay. At the indicated time points the media was removed and plated frozen at −80° C. Double distilled H2O was then added and the plates were incubated at 37° C. for 1 hour. After 1 hour the plates were frozen at −80° C. After freezing the plates were thawed and Hoechst stain was diluted 1:1000 in THE buffer (10 mM Tris, 2M NaCl, 1 mM Na2EDTA). The final fluorescence was measured on the Victor X2 plate reader at 355/460 nm, and cell proliferation was determined with the formula: % Cell Proliferation=100×(Sample fluorescence−background fluorescence)/(Control fluorescence−background fluorescence).

Her2 and Akt = assay: Degradation assay (Western blot of client proteins); type: cell-based
Description: Western Blotting: SDS-PAGE was carried out using Criterion™ Cell system using pre-casted 4-20% or 4-15% Criterion™ Tris-HCl gels (BioRad, Hercules, Calif.). For Western blotting gels were run at 200V for 1 hour using the PowerPac basic power supply (BioRad, Hercules, Calif.). Next, gels were transferred to nitrocellulose for blotting at 100V for 1 hour (Fisher Scientific, Waltham, Mass.). Nitrocellulose membranes were blocked with 5% dry non-fat milk in phosphate-buffered saline (PBS) with 0.01% Tween-20 for 1 hour at room temperature. Membranes were incubated with primary antibodies (1:1000 dilution) overnight at 4° C. The next day membranes were washed 3× in PBS-Tween, incubated for 1 hour at room temperature with secondary antibodies, and further washed 3× in PBS-Tween. ECL Plus Western blotting reagent (Pierce Biotechnology, Rockford, Ill.) was used to detect antibodies. GFP, Her2, Akt, Hsp70, Hsc70, Grp78, Grp75, and Hsp90 primary antibodies and all associated secondary antibodies were purchased from Cell Signaling Technology (Danvers, Mass.).
Degradation Assay: The specified cells were seeded overnight and then treated with the indicated concentration of compound for 24 hours. The cells were then harvested and subjected to analysis by Western blot.

[1] = Blood workup after HS-72 treatment; type: in vivo; details: wild-type mice, compared to control mice
Description: HS-72 in vivo MTD and blood workup: The 5 cohorts consisted of 3 mice each given HS-72 BiW and administered IP in DMSO at 1, 5, 10, 20 and 30 mpk using female FVBs aged to 10 weeks. Body Mass was measured weekly and the mice were monitored for signs of toxicity as per MP1U standard protocol. For blood analysis, 4 mice were injected IP with HS-72 on day 1 and 4, with blood drawn on day 5. 4 mice receiving no treatment were used as controls.

[2] = HS-72 in combination with HS-10

T1 sequence (P34930 whole entry): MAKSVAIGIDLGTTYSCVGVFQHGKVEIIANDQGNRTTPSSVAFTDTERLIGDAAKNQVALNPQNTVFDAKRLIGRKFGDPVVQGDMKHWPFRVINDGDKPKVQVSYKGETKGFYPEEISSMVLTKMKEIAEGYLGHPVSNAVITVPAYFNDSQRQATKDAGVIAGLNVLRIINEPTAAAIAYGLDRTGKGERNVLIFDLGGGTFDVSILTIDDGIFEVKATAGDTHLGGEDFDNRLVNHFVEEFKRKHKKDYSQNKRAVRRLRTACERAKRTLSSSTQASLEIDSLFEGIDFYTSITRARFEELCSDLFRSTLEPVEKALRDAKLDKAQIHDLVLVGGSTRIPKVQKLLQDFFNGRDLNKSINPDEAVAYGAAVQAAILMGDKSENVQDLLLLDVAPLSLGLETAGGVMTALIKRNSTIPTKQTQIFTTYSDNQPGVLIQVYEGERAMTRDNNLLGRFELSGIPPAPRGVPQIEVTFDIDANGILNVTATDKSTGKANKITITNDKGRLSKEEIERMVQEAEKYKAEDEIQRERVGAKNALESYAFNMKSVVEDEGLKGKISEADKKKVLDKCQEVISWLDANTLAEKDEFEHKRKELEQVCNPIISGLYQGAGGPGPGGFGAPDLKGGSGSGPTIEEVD

SMILES: CCCn1c(NC(=O)[C@H]2CCCN(c3cnccn3)C2)nc2ccccc21 [HS-72, (S)—N-(1-propyl-1H-benzo[d]imidazol-2-yl)-1-(pyrazin-2-yl)piperidine-3-carboxamide]
- elution of Hsp70 from ATP resin (Hsp70): elutes Hsp70
- effect on Tm of the Hsp70i C306D mutant (Hsp70i C306D mutant): does not change
- cell proliferation (SkBr3): inhibits proliferation
- cell proliferation, combination with HS-10 (SkBr3): additive effect
- cell proliferation, combination with HS-10 (SkBr3; listed as HS72): synergism
- Akt degradation (Her2 and Akt; [2]): significant Akt degradation
- levels of Her2 (Her2 and Akt; [2]): completely abolished
- Akt and Her2 expression (Her2 and Akt; compound alone, BT474 breast cancer cells): dose dependent reduction
- complete blood count [1]: no effect on complete blood count
- kidney function [1]: no effect on kidney function
- liver function [1]: no effect on liver function
